Consider 4 compounds from patent US20080214558A1, “PYRIMIDINE-2,4-DIAMINE DERIVATIVES AND THEIR USE AS JAK2 KINASE INHIBITORS” (SUPERGEN, INC., priority 2007, published 2008).

Usually IC50 stands for the point on the concentration scale where inhibition reaches its midpoint. One may read the EC50 as the midpoint of the concentration-response curve.

In one assay the target is T1, JAK2 V617F (Homo sapiens, UniProt O60674, V617F).
T1 construct: These enzymes include both the JH1 and JH2 homology regions of the protein; purchased Invitrogen Corporation (SelectScreen assay service, Carlsbad, Calif.)
T1 sequence (O60674 532-1132 V617F limits assumed): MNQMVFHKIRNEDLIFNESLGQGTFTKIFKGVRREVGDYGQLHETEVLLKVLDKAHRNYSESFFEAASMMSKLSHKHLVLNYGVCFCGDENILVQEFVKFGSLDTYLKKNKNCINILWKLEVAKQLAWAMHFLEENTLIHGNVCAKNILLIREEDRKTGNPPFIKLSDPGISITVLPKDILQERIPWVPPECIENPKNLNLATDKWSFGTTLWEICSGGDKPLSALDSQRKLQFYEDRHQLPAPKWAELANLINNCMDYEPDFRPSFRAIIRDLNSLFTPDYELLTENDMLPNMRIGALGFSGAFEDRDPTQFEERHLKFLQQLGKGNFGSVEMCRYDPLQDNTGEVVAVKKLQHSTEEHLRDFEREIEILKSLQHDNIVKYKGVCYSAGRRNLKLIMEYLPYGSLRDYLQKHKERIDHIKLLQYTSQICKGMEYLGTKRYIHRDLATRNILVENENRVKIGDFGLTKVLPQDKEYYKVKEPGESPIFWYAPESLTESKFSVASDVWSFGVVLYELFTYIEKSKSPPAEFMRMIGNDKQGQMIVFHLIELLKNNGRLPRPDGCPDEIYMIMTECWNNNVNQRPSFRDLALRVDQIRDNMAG
Briefly: Invitrogen SelectScreen profiling, mutant JAK2. It counts as biochemical. The note with it: read-out: IC50 against mutant JAK2 V617F (SelectScreen). From the text:
(§1) The JAK2 V617F mutant isoform has recently come into focus for its role in neoplastic transformation. Thus, compounds may also be testing using the SelectScreen™ assay service (Invitrogen Corporation, Carlsbad, Calif.), which includes both wild-type and V617F mutant isoforms of JAK2. These enzymes include both the JH1 and JH2 homology regions of the protein, and differ only at amino acid 617.

The target in assay [1] is T2, JAK2 kinase (Homo sapiens, UniProt O60674). Kind of assay: Radiometric IC50Profiler assay (Millipore-Upstate). It counts as biochemical. Details: purchased Millipore-Upstate (KinaseProfiler / IC50Profiler assay service, Dundee, UK). The settings on record: read-out: IC50 (IC50 Profiler data). How it is done:
Compounds may also be tested using a radiometric assay; namely, the KinaseProfiler™ and IC50Profiler™ assay services (Millipore-Upstate, Dundee, UK). Briefly, compounds are tested at a single concentration (for single-point screening) or at a number of concentrations (for IC50 determinations) against recombinant JAK2 enzyme in the presence of radiolabeled ATP.

The subject of assay [2] is STAT5-phospho-Y694 in HEL cells expressing the V617F mutant of JAK2. Briefly: Western blot of STAT5 phosphorylation in HEL cells expressing JAK2 V617F. The note with it: Homo sapiens, 24 hours, Western blot densitometry, read-out: EC50 for reduction of STAT5 phosphorylation. It counts as cell-based. As to the method:
(§2) In order to detect specific inhibition of JAK2 enzyme in cell culture, Western blot assays may also be performed. For this, cells which have been treated with a potential JAK2 inhibitor are lysed with a buffer specific for the isolation and preservation of proteins (1% Nonidet P-40, 120 mM NaCl, 30 mM Tris pH 7.4, 1:100 Protease Inhibitor Cocktail III [Calbiochem/EMD Biosciences], 1:100 Phosphatase Inhibitor Cocktail 1 [Sigma-Aldrich, Saint Louis, Mo.], 1:100 Phosphatase Inhibitor Cocktail 2 [Sigma-Aldrich, Saint Louis, Mo.]). The protein concentration in these lysates is then quantified using the BCA Protein Assay Kit (Pierce). Known amounts of protein, e.g. 50 ug, are loaded onto 10% SDS-polyacrylamide gels and are subjected to reducing, denaturing SDS-PAGE. Electrophoresed proteins are transferred to a nitrocellulose membrane, which is then probed with antibodies to STAT5, pSTAT5 (Tyr 694), STAT3, and pSTAT3 (Tyr 705). As STAT5 and STAT3, at Tyrosine 694 and Tyrosine 705 respectively, are substrates for JAK2, measuring the amount of phosphorylation at these sites in treated cells provides a means by which to evaluate the efficacy of JAK2 inhibitors.
Briefly, HEL cells were plated in 25 cm^2 tissue culture flasks and incubated in the presence of varying concentrations of Compound Nos. 1 or 2 for 24 hours. Following incubation, cells were lysed and total protein isolated and quantified. 50 μg of total protein was electrophoresed and transferred to nitrocellulose membrane, at which point Western Blot analysis was performed using an antibody to STAT5-phospho-Y694. Comparisons to total STAT5 were made. Densitometry analysis was performed in order to quantify the amount of STAT5 phosphorylation in these treated cells.
(In general: A western blot detects proteins with antibodies after separation by electrophoresis.)

Assay [3] deals with T2, JAK2 kinase. Briefly: JAK2 kinase inhibition assay (Promega Kinase-Glo). The settings on record: read-out: IC50 against JAK2 kinase (Promega Kinase-Glo assay). It counts as biochemical. From the text: One illustrative manner in which JAK2 kinase activity can be determined is by quantifying the amount of ATP remaining in solution after an in vitro JAK2 kinase reaction, such as the Kinase-Glo Assay Kit (Promega, Inc., Madison, Wis.). The amount of ATP remaining in the solution after the kinase reaction serves as a substrate for the luciferase to catalyze luciferin to oxyluciferin plus one photon of light. Thus, the luminescent signal read by the Luminoskan Ascent Instrument (Thermo Electron Corp., Milford, Mass.) correlates with the amount of ATP present after the kinase reaction and inversely correlates with the amount of kinase activity. This assay is efficient at determining the IC50 values of kinase inhibitors against the JAK2 kinase. These assays are set up in duplicate 50 ul volumes in white, flat bottom 96 well plates. Inhibitors are added to the solution of 1× kinase buffer, 6 uM ATP, 62.5 uM JAK2-specific substrate, 30 ng of active JAK2 enzyme, and water in serial dilutions ranging from micromolar to nanomolar concentrations. This solution is incubated at 30 degrees Celsius at 360 rpm for two hours. Following the incubation, 50 ul of Kinase-Glo reagent is added to each well, including all positive and negative control wells, and incubated at room temperature for 15 minutes. […] The IC50 values can then be calculated for each inhibitor tested.
IC50 values against JAK2 kinase (using the Promega Kinase-Glo assay) were measured for Compound Nos. 1-4, 1-7, 1-11 and 1-17.

Another assay deals with T3, JAK2 WT (Homo sapiens, UniProt O60674).
T3 construct: These enzymes include both the JH1 and JH2 homology regions of the protein; purchased Invitrogen Corporation (SelectScreen assay service, Carlsbad, Calif.)
T3 sequence (O60674 532-1132 limits assumed): as the sequence (O60674 532-1132 V617F limits assumed) above, with F86V counted along it
Kind of assay: Invitrogen SelectScreen profiling, wild-type JAK2. It counts as biochemical. The settings on record: read-out: IC50 against wild-type JAK2 (SelectScreen).
From the text: as §1

Assay [4] deals with various cancer cell lines. Briefly: Cell-Titer-Glo cell survival/proliferation assay. The settings on record: screened between 300 nM and 10 nM, read-out: IC50 from % survival (Cell-Titer-Glo). It counts as cell-based. As to the method:
Cell culture-based assays can be used to evaluate the ability of compounds of the invention to inhibit one or more cellular activities, such as cancer cell growth and/or survival. Numerous cancer cell lines can be obtained from the American Type Culture Collection (ATCC) and other sources. Briefly, cells are seeded into 96-well, tissue-culture treated, opaque white plates (Thermo Electron, Vantaa, Finland), at between 600 and 14000 cells per well, depending on the speed of cell proliferation, in 100 ul of appropriate growth medium (determined by the ATCC). Cells are then exposed to the appropriate concentration of drug and allowed to grow in its presence for 96 hours. Following this, 100 ul of Cell-Titer-Glo reagent (Promega, Inc., Madison, Wis.) is added to each well. Plates are then shaken for 2 minutes at room temperature to allow for cell lysis and incubated for 10 minutes at room temperature to stabilize the luminescent signal. Similar to the Kinase-Glo assay reagent from Promega, this reagent contains both luciferase enzyme and its substrate luciferin. Luciferase, activated by ATP in the cell lysate, catalyzes the conversion of luciferin to oxyluciferin, a reaction which produces light. The amount of light produced is proportionate to the amount of ATP in the cell lysate, which is itself proportional to cell number and gives an index of cellular proliferation.
Compound Nos. 1-4, 1-7, 1-11 and 1-17 were screened at a dilution range between 300 nM and 10 nM as JAK2 inhibitors, with percent survival being determined using the Cell-Titer-Glo Assay.

The test system of assay [5] is STAT5-phospho-Y694 in AGS gastric cancer cell line. Kind of assay: Western blot of STAT5 phosphorylation in AGS cells. The note with it: 24 hours, 5-10 uM, Western blot densitometry. It counts as cell-based. As to the method:
as §2, with “Electrophoresed proteins are transferred to a nitrocellulose membrane, which is then probed with antibodies to STAT5, pSTAT5 (Tyr 694), STAT3, and pSTAT3 (Tyr 705). As STAT5 and STAT3, at Tyrosine 694 and Tyrosine 705 respectively, are substrates for JAK2, measuring the amount of phosphorylation at these sites in treated cells provides a means by which to evaluate the efficacy of JAK2 inhibitors.” left out
(§3) In this example, Compound 1-4 is shown to reduce the JAK2-dependent phosphorylation of STAT3 and STAT5 in the AGS gastric cancer cell line. […] Following incubation, cells were lysed and total protein isolated and quantified. […] Densitometry analysis was performed in order to quantify the amount of STAT3 and STAT5 phosphorylation in these treated cells. Phospho-STAT3 and phospho-STAT5 were compared to total STAT3 and STAT5 and the proportion of STAT phosphorylation relative to untreated controls was determined.

Assay [6] deals with nuclear STAT3 in AGS gastric cancer cells. Kind of assay: STAT3 nuclear translocation high-content assay (STAT3 HitKit, ArrayScan VTi). It counts as cell-based. As to the method: When STAT3 is phosphorylated by JAK2, it forms a homodimer and is translocated to the nucleus to effect transcription of a number of target genes involved in cell proliferation. AGS gastric cancer cells were inoculated onto 96 well plates, and incubated in the presence of 5 μM Compound 1-4 for 1, 5 or 24 hours. Following incubation, cells were stained using the STAT3 HitKit (Thermo-Fisher) and detected using the Molecular Translocation BioApplication on a ArrayScan VTi high-content screening instrument (Thermo-Fisher). Nuclei were pseudostained blue (Hoechst) and STAT3 was pseudostained green (FITC).
Nuclear STAT3 was reduced by greater than 50% 24 h after treatment with Compound 1-4 when compared with nuclear STAT3 levels in untreated samples.

The test system of assay [7] is STAT3-phospho-Y705 in AGS gastric cancer cell line. Kind of assay: Western blot of STAT3 phosphorylation in AGS cells. The class given is cell-based. The settings on record: 24 hours, 5-10 uM, Western blot densitometry. As to the method:
as §2, with “Electrophoresed proteins are transferred to a nitrocellulose membrane, which is then probed with antibodies to STAT5, pSTAT5 (Tyr 694), STAT3, and pSTAT3 (Tyr 705). As STAT5 and STAT3, at Tyrosine 694 and Tyrosine 705 respectively, are substrates for JAK2, measuring the amount of phosphorylation at these sites in treated cells provides a means by which to evaluate the efficacy of JAK2 inhibitors.” left out
as §3

T2 sequence (O60674 whole entry): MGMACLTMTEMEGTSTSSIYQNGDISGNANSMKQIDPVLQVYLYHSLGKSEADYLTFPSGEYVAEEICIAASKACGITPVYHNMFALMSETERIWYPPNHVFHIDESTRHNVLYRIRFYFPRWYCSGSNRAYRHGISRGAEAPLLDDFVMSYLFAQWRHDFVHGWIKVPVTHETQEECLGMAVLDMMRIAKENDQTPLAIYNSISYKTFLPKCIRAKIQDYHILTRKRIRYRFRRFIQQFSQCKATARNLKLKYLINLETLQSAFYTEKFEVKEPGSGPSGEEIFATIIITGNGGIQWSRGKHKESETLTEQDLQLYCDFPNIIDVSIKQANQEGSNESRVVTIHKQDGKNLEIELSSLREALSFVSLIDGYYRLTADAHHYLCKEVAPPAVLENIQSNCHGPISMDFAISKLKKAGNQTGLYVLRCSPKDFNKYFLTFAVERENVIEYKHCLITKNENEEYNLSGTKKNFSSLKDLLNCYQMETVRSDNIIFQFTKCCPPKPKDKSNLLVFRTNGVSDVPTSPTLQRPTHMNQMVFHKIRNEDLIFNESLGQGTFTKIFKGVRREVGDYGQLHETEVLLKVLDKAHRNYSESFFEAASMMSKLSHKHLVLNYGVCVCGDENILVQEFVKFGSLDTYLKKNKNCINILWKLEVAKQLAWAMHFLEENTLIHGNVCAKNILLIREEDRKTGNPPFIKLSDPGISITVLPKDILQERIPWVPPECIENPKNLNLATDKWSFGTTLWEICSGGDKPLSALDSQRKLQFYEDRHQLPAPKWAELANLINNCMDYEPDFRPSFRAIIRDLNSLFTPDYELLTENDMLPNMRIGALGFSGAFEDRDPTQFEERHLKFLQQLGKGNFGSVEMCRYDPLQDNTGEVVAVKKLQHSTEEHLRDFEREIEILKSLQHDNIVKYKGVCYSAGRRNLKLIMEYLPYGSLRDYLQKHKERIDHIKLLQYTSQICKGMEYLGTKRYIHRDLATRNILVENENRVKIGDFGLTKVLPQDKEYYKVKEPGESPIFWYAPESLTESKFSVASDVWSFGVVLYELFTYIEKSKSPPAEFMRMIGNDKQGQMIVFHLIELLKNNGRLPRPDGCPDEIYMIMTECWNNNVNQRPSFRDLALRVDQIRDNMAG

Turning to `CN1CCN(c2ccc(Nc3nccc(Nc4cccc(CC#N)c4)n3)cc2F)CC1` [Compound 1-11, 2-(3-(2-(3-Fluoro-4-(4-methylpiperazin-1-yl)phenylamino)pyrimidin-4-ylamino)phenyl)acetonitrile], the IC50 was less than 1000 nM at JAK2 V617F; less than 1000 nM at JAK2 kinase [1]; less than 1000 nM at JAK2 kinase [3]; less than 1000 nM on JAK2 WT; less than 10 nM in [4]. Further, in assay [2], the EC50 was determined as 65.8 nM.
Take `CN1CCN(C(=O)c2ccc(Nc3nccc(Nc4cccc(CC#N)c4)n3)cc2)CC1` [Compound 1-17, 2-(3-(2-(4-(4-methylpiperazine-1-carbonyl)phenylamino)pyrimidin-4-ylamino)phenyl)acetonitrile]: the IC50 on JAK2 V617F was less than 1000 nM; at JAK2 kinase [1], less than 1000 nM; at JAK2 kinase [3] it was less than 1000 nM; on JAK2 WT it was less than 1000 nM; in assay [4] it was less than 10 nM. Further, the 50% effective concentration (EC50) in [2] was determined as 266 nM.
For `CN1CCN(c2ccc(Nc3nccc(Nc4cccc(CC#N)c4)n3)cc2)CC1` [Compound 1-7, 2-(3-(2-(4-(4-Methylpiperazin-1-yl)phenylamino)pyrimidin-4-ylamino)phenyl)acetonitrile], the IC50 on JAK2 V617F is less than 1000 nM; at JAK2 kinase [1], less than 1000 nM; on JAK2 kinase [3], less than 1000 nM; on JAK2 WT it was less than 1000 nM; in assay [4], less than 10 nM. Besides, in [2], the EC50 came out at 4 nM.
Regarding `CN1CCN(c2ccc(Nc3nccc(Nc4ccc(F)c(Cl)c4)n3)cc2)CC1` [Compound 1-4, N4-(3-chloro-4-fluorophenyl)-N2-(4-(4-methylpiperazin-1-yl)phenyl)pyrimidine-2,4-diamine], the IC50 is less than 1000 nM on JAK2 V617F; less than 1000 nM on JAK2 kinase [1]; less than 1000 nM at JAK2 kinase [3]; less than 1000 nM at JAK2 WT; less than 10 nM in assay [4]. In assay [5], the “STAT5 phosphorylation relative to untreated controls” value is reported as “reduced levels”. Further, the STAT3 staining localisation result in assay [6] (5 μM, 1, 5 or 24 hours) is “confined outside the nucleus”. In assay [6] (5 μM, 24 h after treatment), the “Reduction of nuclear STAT3 compared with untreated samples” value was “greater than 50%”. Moreover, the EC50 in [2] turned out to be 299 nM. Also, in assay [7], the “STAT3 phosphorylation relative to untreated controls” value is reported as “reduced levels”.
